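Protocol summary: plate cells (96-well), add compound at 5 concentrations, incubate 48 h, interpolate endpoints linearly. At the GI50, growth is halved.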 Activity calls are given as the source filed them. Cut-off read from the data, not from the text of the source: active = GI50 up to about 1.1 µM and inactive = higher.
Assays:
Assay in all cases: DTP human tumour cell line panel, 48 h
NCI-H226 = test system: NCI-H226
SNB-19 = test system: SNB-19
LXFL 529 = test system: LXFL 529
HCT-116 = test system: HCT-116
SN12C = test system: SN12C
SNB-75 = test system: SNB-75
UACC-62 = test system: UACC-62
SK-MEL-5 = test system: SK-MEL-5
HCT-15 = test system: HCT-15
UO-31 = test system: UO-31
K562 = test system: K562
IGROV-1 = test system: IGROV-1
CAKI-1 = test system: CAKI-1
M19-MEL = test system: M19-MEL
SK-MEL-2 = test system: SK-MEL-2
TK-10 = test system: TK-10
HOP-18 = test system: HOP-18
LOX IMVI = test system: LOX IMVI
EKVX = test system: EKVX
A498 = test system: A498
XF498 = test system: XF498
786-0 = test system: 786-0
OVCAR-4 = test system: OVCAR-4
NCI-H460 = test system: NCI-H460
MOLT-4 = test system: MOLT-4
CCRF-CEM = test system: CCRF-CEM
OVCAR-3 = test system: OVCAR-3
KM12 = test system: KM12
SK-MEL-28 = test system: SK-MEL-28
HOP-62 = test system: HOP-62
A549 = test system: A549
SF-268 = test system: SF-268
SNB-78 = test system: SNB-78
RXF 393 = test system: RXF 393
U-251 = test system: U-251
SW-620 = test system: SW-620
HL-60 = test system: HL-60
NCI-H522 = test system: NCI-H522
SF-295 = test system: SF-295
M14 = test system: M14
HCC 2998 = test system: HCC 2998
OVCAR-5 = test system: OVCAR-5
Malme-3M = test system: Malme-3M
SK-OV-3 = test system: SK-OV-3
DLD-1 = test system: DLD-1
HOP-92 = test system: HOP-92
OVCAR-8 = test system: OVCAR-8
DMS-114 = test system: DMS-114
COLO 205 = test system: COLO 205
NCI-H23 = test system: NCI-H23
SF-539 = test system: SF-539
UACC-257 = test system: UACC-257
RPMI-8226 = test system: RPMI-8226
ACHN = test system: ACHN
KM-20L2 = test system: KM-20L2
HT-29 = test system: HT-29
DMS-273 = test system: DMS-273

Measured: GI50

CCN(C(C)=N)c1ccccc1
inactive: NCI-H226 56.8 µM | SNB-19 78.7 µM | LXFL 529 75.9 µM | HCT-116 48.9 µM | SN12C 70 µM | SNB-75 37.5 µM | UACC-62 > 100 µM | SK-MEL-5 35.1 µM | UO-31 39 µM | K562 43.6 µM | IGROV-1 > 100 µM | CAKI-1 95.1 µM | M19-MEL 95.5 µM | SK-MEL-2 > 100 µM | TK-10 > 100 µM | HOP-18 > 100 µM | LOX IMVI > 100 µM | EKVX 52.8 µM | A498 37.5 µM | XF498 > 100 µM | 786-0 > 100 µM | OVCAR-4 66.8 µM | NCI-H460 > 100 µM | MOLT-4 72.6 µM | CCRF-CEM > 100 µM | OVCAR-3 > 100 µM | KM12 > 100 µM | SK-MEL-28 68.4 µM | HOP-62 66.4 µM | A549 > 100 µM | SF-268 > 100 µM | SNB-78 > 100 µM | RXF 393 > 100 µM | U-251 > 100 µM | SW-620 > 100 µM | HL-60 32.8 µM | NCI-H522 50.2 µM | SF-295 43.5 µM | M14 > 100 µM | HCC 2998 > 100 µM | OVCAR-5 > 100 µM | Malme-3M > 100 µM | SK-OV-3 > 100 µM | DLD-1 > 100 µM | HOP-92 60.4 µM | OVCAR-8 > 100 µM | DMS-114 36.5 µM | COLO 205 > 100 µM | NCI-H23 54.8 µM | SF-539 > 100 µM | UACC-257 17.2 µM | RPMI-8226 27 µM | ACHN 61.5 µM | KM-20L2 > 100 µM
> 100 µM: HCT-15

COc1ccc(/C=C/C(=O)c2c(-c3ccccc3)nn(C)c(=O)c2N2CCCC2)cc1
> 100 µM: HCT-15
inactive: LXFL 529 > 100 µM | HCT-116 87.9 µM | SN12C > 100 µM | UACC-62 > 100 µM | SK-MEL-5 > 100 µM | UO-31 > 100 µM | K562 57.3 µM | IGROV-1 > 100 µM | M19-MEL > 100 µM | TK-10 > 100 µM | HOP-18 > 100 µM | LOX IMVI > 100 µM | EKVX > 100 µM | A498 > 100 µM | XF498 > 100 µM | 786-0 82 µM | NCI-H460 > 100 µM | MOLT-4 36.9 µM | CCRF-CEM > 100 µM | HT-29 > 100 µM | SK-MEL-28 > 100 µM | A549 > 100 µM | SF-268 87.3 µM | U-251 > 100 µM | SW-620 > 100 µM | HL-60 20.9 µM | SF-295 70.5 µM | M14 > 100 µM | SK-OV-3 > 100 µM | DLD-1 > 100 µM | HOP-92 3.69 µM | OVCAR-8 > 100 µM | DMS-273 > 100 µM | DMS-114 > 100 µM | COLO 205 > 100 µM | SF-539 69.2 µM | RPMI-8226 > 100 µM | ACHN > 100 µM | KM-20L2 > 100 µM
